Experimental data reported in ChEMBL document CHEMBL3994562 (Medchemcomm, 2016).

System: MCF7
Assay: Antiproliferative activity in human MCF7 cells after 72 hrs by MTT assay
Assay type: functional, cell-based
Details: MCF7, 72 h
In the case of `CCN1CCN(CCCOC(=O)c2cc(O)c3c(c2)C(=O)c2cccc(O)c2C3=O)CC1.Cl.Cl`, the IC50 is reported as 3.59 µM. Compound `CCN(CC)CCCCOC(=O)c1cc(O)c2c(c1)C(=O)c1cccc(O)c1C2=O.Cl` has an IC50 of 5.36 µM. In the case of `CCN1CCN(CCCCCOC(=O)c2cc(O)c3c(c2)C(=O)c2cccc(O)c2C3=O)CC1.Cl.Cl`, the IC50 is reported as 0.42 µM. Compound `Cl.O=C(OCCCN1CCCCC1)c1cc(O)c2c(c1)C(=O)c1cccc(O)c1C2=O` has an IC50 of 7.74 µM. Work on `Cl.Cl.O=C(OCCCCCN1CCN(CCO)CC1)c1cc(O)c2c(c1)C(=O)c1cccc(O)c1C2=O` yielded an IC50 of 0.95 µM. Work on `Cl.Cl.O=C(OCCCN1CCN(CCO)CC1)c1cc(O)c2c(c1)C(=O)c1cccc(O)c1C2=O` yielded an IC50 of 8.86 µM. For `CCN(CC)CCCCCOC(=O)c1cc(O)c2c(c1)C(=O)c1cccc(O)c1C2=O.Cl`, the IC50 was 15.2 µM. Compound `Cl.O=C(OCCCCCN1CCCCC1)c1cc(O)c2c(c1)C(=O)c1cccc(O)c1C2=O` has an IC50 of 1.95 µM. For `CN1CCN(CCCCCCOC(=O)c2cc(O)c3c(c2)C(=O)c2cccc(O)c2C3=O)CC1.Cl.Cl`, the IC50 was 5.05 µM. Compound `Cl.O=C(OCCCCCCN1CCOCC1)c1cc(O)c2c(c1)C(=O)c1cccc(O)c1C2=O` has an IC50 of 27.5 µM. With `Cl.O=C(OCCCN1CCOCC1)c1cc(O)c2c(c1)C(=O)c1cccc(O)c1C2=O` the IC50 was 27.3 µM. Compound `CN1CCN(CCCOC(=O)c2cc(O)c3c(c2)C(=O)c2cccc(O)c2C3=O)CC1.Cl.Cl` has an IC50 of 11.4 µM. Work on `Cl.O=C(OCCCCN1CCCCC1)c1cc(O)c2c(c1)C(=O)c1cccc(O)c1C2=O` yielded an IC50 of 28.9 µM.

System: not listed separately
Assay: Aqueous solubility of the compound in water after 48 hrs by UV spectrophotometer
Assay type: physicochemical
Details: not given
For `CCN1CCN(CCCOC(=O)c2cc(O)c3c(c2)C(=O)c2cccc(O)c2C3=O)CC1.Cl.Cl`, the solubility at 48 h was 10.1 mg/mL. In the case of `CCN(CC)CCCCOC(=O)c1cc(O)c2c(c1)C(=O)c1cccc(O)c1C2=O.Cl`, the solubility at 48 h is reported as 13 mg/mL. `CCN1CCN(CCCCCOC(=O)c2cc(O)c3c(c2)C(=O)c2cccc(O)c2C3=O)CC1.Cl.Cl` showed a solubility at 48 h of 10 mg/mL. For `Cl.O=C(OCCCN1CCCCC1)c1cc(O)c2c(c1)C(=O)c1cccc(O)c1C2=O`, the solubility at 48 h was 11.3 mg/mL. `Cl.Cl.O=C(OCCCCCN1CCN(CCO)CC1)c1cc(O)c2c(c1)C(=O)c1cccc(O)c1C2=O` gave a solubility at 48 h of 12.2 mg/mL. In the case of `Cl.Cl.O=C(OCCCN1CCN(CCO)CC1)c1cc(O)c2c(c1)C(=O)c1cccc(O)c1C2=O`, the solubility at 48 h is reported as 12.2 mg/mL. `CCN(CC)CCCCCOC(=O)c1cc(O)c2c(c1)C(=O)c1cccc(O)c1C2=O.Cl` showed a solubility at 48 h of 12.4 mg/mL. `Cl.O=C(OCCCCCN1CCCCC1)c1cc(O)c2c(c1)C(=O)c1cccc(O)c1C2=O` showed a solubility at 48 h of 10.3 mg/mL. For `CN1CCN(CCCCCCOC(=O)c2cc(O)c3c(c2)C(=O)c2cccc(O)c2C3=O)CC1.Cl.Cl`, the solubility at 48 h was 12.9 mg/mL. `Cl.O=C(OCCCCCCN1CCOCC1)c1cc(O)c2c(c1)C(=O)c1cccc(O)c1C2=O` showed a solubility at 48 h of 12.8 mg/mL. In the case of `Cl.O=C(OCCCN1CCOCC1)c1cc(O)c2c(c1)C(=O)c1cccc(O)c1C2=O`, the solubility at 48 h is reported as 12.1 mg/mL. Work on `CN1CCN(CCCOC(=O)c2cc(O)c3c(c2)C(=O)c2cccc(O)c2C3=O)CC1.Cl.Cl` yielded a solubility at 48 h of 13.3 mg/mL. Compound `Cl.O=C(OCCCCN1CCCCC1)c1cc(O)c2c(c1)C(=O)c1cccc(O)c1C2=O` has a solubility at 48 h of 10.7 mg/mL.

System: HepG2
Assay: Antiproliferative activity in human HepG2 cells after 72 hrs by MTT assay
Assay type: functional, cell-based
Details: HepG2, 72 h
`CCN1CCN(CCCOC(=O)c2cc(O)c3c(c2)C(=O)c2cccc(O)c2C3=O)CC1.Cl.Cl` gave an IC50 of 1.36 µM. `CCN(CC)CCCCOC(=O)c1cc(O)c2c(c1)C(=O)c1cccc(O)c1C2=O.Cl` gave an IC50 of 1.34 µM. For `CCN1CCN(CCCCCOC(=O)c2cc(O)c3c(c2)C(=O)c2cccc(O)c2C3=O)CC1.Cl.Cl`, the IC50 was 2.86 µM. Work on `Cl.O=C(OCCCN1CCCCC1)c1cc(O)c2c(c1)C(=O)c1cccc(O)c1C2=O` yielded an IC50 of 3.44 µM. Compound `Cl.Cl.O=C(OCCCCCN1CCN(CCO)CC1)c1cc(O)c2c(c1)C(=O)c1cccc(O)c1C2=O` has an IC50 of 2.51 µM. Work on `Cl.Cl.O=C(OCCCN1CCN(CCO)CC1)c1cc(O)c2c(c1)C(=O)c1cccc(O)c1C2=O` yielded an IC50 of 4.02 µM. In the case of `CCN(CC)CCCCCOC(=O)c1cc(O)c2c(c1)C(=O)c1cccc(O)c1C2=O.Cl`, the IC50 is reported as 12.2 µM. `Cl.O=C(OCCCCCN1CCCCC1)c1cc(O)c2c(c1)C(=O)c1cccc(O)c1C2=O` showed an IC50 of 6.12 µM. `CN1CCN(CCCCCCOC(=O)c2cc(O)c3c(c2)C(=O)c2cccc(O)c2C3=O)CC1.Cl.Cl` showed an IC50 of 0.42 µM. Compound `Cl.O=C(OCCCCCCN1CCOCC1)c1cc(O)c2c(c1)C(=O)c1cccc(O)c1C2=O` has an IC50 of 0.79 µM. `Cl.O=C(OCCCN1CCOCC1)c1cc(O)c2c(c1)C(=O)c1cccc(O)c1C2=O` showed an IC50 of 1.81 µM. `CN1CCN(CCCOC(=O)c2cc(O)c3c(c2)C(=O)c2cccc(O)c2C3=O)CC1.Cl.Cl` showed an IC50 of 4.93 µM. Work on `Cl.O=C(OCCCCN1CCCCC1)c1cc(O)c2c(c1)C(=O)c1cccc(O)c1C2=O` yielded an IC50 of 0.89 µM.

System: A549
Assay: Antiproliferative activity in human A549 cells after 72 hrs by MTT assay
Assay type: functional, cell-based
Details: A549, 72 h
In the case of `CCN1CCN(CCCOC(=O)c2cc(O)c3c(c2)C(=O)c2cccc(O)c2C3=O)CC1.Cl.Cl`, the IC50 is reported as 7.62 µM. `CCN(CC)CCCCOC(=O)c1cc(O)c2c(c1)C(=O)c1cccc(O)c1C2=O.Cl` showed an IC50 of 3.86 µM. `CCN1CCN(CCCCCOC(=O)c2cc(O)c3c(c2)C(=O)c2cccc(O)c2C3=O)CC1.Cl.Cl` gave an IC50 of 6.78 µM. `Cl.O=C(OCCCN1CCCCC1)c1cc(O)c2c(c1)C(=O)c1cccc(O)c1C2=O` gave an IC50 of 5.41 µM. Work on `Cl.Cl.O=C(OCCCCCN1CCN(CCO)CC1)c1cc(O)c2c(c1)C(=O)c1cccc(O)c1C2=O` yielded an IC50 of 5.21 µM. `Cl.Cl.O=C(OCCCN1CCN(CCO)CC1)c1cc(O)c2c(c1)C(=O)c1cccc(O)c1C2=O` gave an IC50 of 7.11 µM. For `CCN(CC)CCCCCOC(=O)c1cc(O)c2c(c1)C(=O)c1cccc(O)c1C2=O.Cl`, the IC50 was 27.3 µM. `Cl.O=C(OCCCCCN1CCCCC1)c1cc(O)c2c(c1)C(=O)c1cccc(O)c1C2=O` gave an IC50 of 8.69 µM. Compound `CN1CCN(CCCCCCOC(=O)c2cc(O)c3c(c2)C(=O)c2cccc(O)c2C3=O)CC1.Cl.Cl` has an IC50 of 3.39 µM. Work on `Cl.O=C(OCCCCCCN1CCOCC1)c1cc(O)c2c(c1)C(=O)c1cccc(O)c1C2=O` yielded an IC50 of 25.4 µM. Work on `Cl.O=C(OCCCN1CCOCC1)c1cc(O)c2c(c1)C(=O)c1cccc(O)c1C2=O` yielded an IC50 of 24.9 µM. Compound `CN1CCN(CCCOC(=O)c2cc(O)c3c(c2)C(=O)c2cccc(O)c2C3=O)CC1.Cl.Cl` has an IC50 of 8.41 µM. In the case of `Cl.O=C(OCCCCN1CCCCC1)c1cc(O)c2c(c1)C(=O)c1cccc(O)c1C2=O`, the IC50 is reported as 26.4 µM.

System: HCT-116
Assay: Antiproliferative activity in human HCT116 cells after 72 hrs by MTT assay
Assay type: functional, cell-based
Details: HCT-116, 72 h
Compound `CCN1CCN(CCCOC(=O)c2cc(O)c3c(c2)C(=O)c2cccc(O)c2C3=O)CC1.Cl.Cl` has an IC50 of 3.97 µM. In the case of `CCN(CC)CCCCOC(=O)c1cc(O)c2c(c1)C(=O)c1cccc(O)c1C2=O.Cl`, the IC50 is reported as 1.81 µM. In the case of `CCN1CCN(CCCCCOC(=O)c2cc(O)c3c(c2)C(=O)c2cccc(O)c2C3=O)CC1.Cl.Cl`, the IC50 is reported as 2.39 µM. `Cl.O=C(OCCCN1CCCCC1)c1cc(O)c2c(c1)C(=O)c1cccc(O)c1C2=O` showed an IC50 of 0.77 µM. Work on `Cl.Cl.O=C(OCCCCCN1CCN(CCO)CC1)c1cc(O)c2c(c1)C(=O)c1cccc(O)c1C2=O` yielded an IC50 of 0.55 µM. In the case of `Cl.Cl.O=C(OCCCN1CCN(CCO)CC1)c1cc(O)c2c(c1)C(=O)c1cccc(O)c1C2=O`, the IC50 is reported as 0.71 µM. `CCN(CC)CCCCCOC(=O)c1cc(O)c2c(c1)C(=O)c1cccc(O)c1C2=O.Cl` showed an IC50 of 9.05 µM. For `Cl.O=C(OCCCCCN1CCCCC1)c1cc(O)c2c(c1)C(=O)c1cccc(O)c1C2=O`, the IC50 was 5.28 µM. For `CN1CCN(CCCCCCOC(=O)c2cc(O)c3c(c2)C(=O)c2cccc(O)c2C3=O)CC1.Cl.Cl`, the IC50 was 0.76 µM. Work on `Cl.O=C(OCCCCCCN1CCOCC1)c1cc(O)c2c(c1)C(=O)c1cccc(O)c1C2=O` yielded an IC50 of 3.26 µM. For `Cl.O=C(OCCCN1CCOCC1)c1cc(O)c2c(c1)C(=O)c1cccc(O)c1C2=O`, the IC50 was 4.92 µM. `CN1CCN(CCCOC(=O)c2cc(O)c3c(c2)C(=O)c2cccc(O)c2C3=O)CC1.Cl.Cl` showed an IC50 of 3.75 µM. Work on `Cl.O=C(OCCCCN1CCCCC1)c1cc(O)c2c(c1)C(=O)c1cccc(O)c1C2=O` yielded an IC50 of 2.03 µM.
